Test systems include CAKI-1 renal; MCF7 breast; NCI-H23 lung; NCI-H460 lung; K-562 leukemia; NCI/ADR-RES ovarian; MDA-MB-435; IGROV1 ovarian; MOLT-4 leukemia; HOP-62 NSCLC.
Holding throughout (assay): NCI anticancer screen, dose series, 48 h

This passage reports TGI results from PubChem BioAssay (NCI).

The structures appear in SMILES notation.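 Tested at 5 concentrations; 48 h exposure; 96-well plates; endpoints linearly interpolated, else capped at highest concentration. TGI marks complete inhibition of growth.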

`Cc1cc2nc3n[nH]c(N)c3nc2cc1C`: the TGI with CAKI-1 renal, in the experiment on MCF7 breast, with NCI-H23 lung, in the experiment on NCI-H460 lung, in the experiment with K-562 leukemia and in the experiment on NCI/ADR-RES ovarian was more than 100 µM each time. Moreover, the TGI with MDA-MB-435, in the experiment with IGROV1 ovarian, with MOLT-4 leukemia and in the experiment with HOP-62 NSCLC was more than 100 µM each time.

On to `CCOP(=O)(OCC)C(NC(=O)OCC(Cl)(Cl)Cl)n1nnc(C(=O)OC)c1C(=O)OC` (configuration not stated), for which the TGI in the experiment on CAKI-1 renal, with MCF7 breast, in the experiment on NCI-H23 lung, in the experiment with NCI-H460 lung, in the experiment on K-562 leukemia and with NCI/ADR-RES ovarian was more than 100 µM each time. Besides, the TGI in the experiment with MDA-MB-435, in the experiment on IGROV1 ovarian, in the experiment with MOLT-4 leukemia and in the experiment with HOP-62 NSCLC was more than 100 µM in each case.

Turning to `O=C(OCCN=C1c2ccccc2CCc2ccccc21)c1cc([N+](=O)[O-])cc([N+](=O)[O-])c1`, the TGI with CAKI-1 renal was more than 31.6 µM; with MCF7 breast it was more than 31.6 µM; in the experiment with NCI-H23 lung, more than 31.6 µM; with NCI-H460 lung, more than 31.6 µM; with K-562 leukemia, more than 100 µM; in the experiment with NCI/ADR-RES ovarian, more than 31.6 µM. In addition, the TGI was more than 31.6 µM with MDA-MB-435, more than 31.6 µM with IGROV1 ovarian, 7.09 µM in the experiment with MOLT-4 leukemia and more than 31.6 µM in the experiment with HOP-62 NSCLC.

With `OC1(c2ccccc2)CC2CCC(C1)N2CCc1ccccc1` (configuration not stated), the TGI in the experiment with CAKI-1 renal is more than 100 µM; with MCF7 breast it was 78.1 µM; in the experiment on NCI-H23 lung, more than 100 µM; in the experiment with NCI-H460 lung, more than 100 µM; in the experiment on K-562 leukemia it was more than 100 µM; in the experiment with NCI/ADR-RES ovarian it was more than 100 µM. The TGI in the experiment on MDA-MB-435, in the experiment on IGROV1 ovarian, in the experiment with MOLT-4 leukemia and in the experiment with HOP-62 NSCLC was more than 100 µM each time.

Take `COC(CN(C)C(=O)C(C)NC(=O)c1ccccc1)OC` (configuration not stated): the TGI in the experiment with CAKI-1 renal, in the experiment on MCF7 breast, in the experiment on NCI-H23 lung, in the experiment on NCI-H460 lung, in the experiment with K-562 leukemia and in the experiment on NCI/ADR-RES ovarian was more than 100 µM throughout. Moreover, the TGI in the experiment with MDA-MB-435, in the experiment on IGROV1 ovarian and in the experiment on MOLT-4 leukemia was more than 100 µM throughout.

`CCOC(=O)C1(C(=O)OCC)C[C@]23OCCC(=O)[C@H]2[C@H]2C(=O)OC(C)(C)O[C@]23C1`: the TGI in the experiment on CAKI-1 renal, in the experiment on MCF7 breast, in the experiment on NCI-H23 lung, in the experiment with NCI-H460 lung, with NCI/ADR-RES ovarian and with MDA-MB-435 was more than 100 µM throughout. Further, the TGI in the experiment with IGROV1 ovarian, in the experiment on MOLT-4 leukemia and in the experiment with HOP-62 NSCLC was more than 100 µM in each case.

Take `O=C(NN=C1CCN(Cc2ccccc2)CC1)C(O)(c1ccccc1)c1ccccc1`: the TGI with MCF7 breast, in the experiment with NCI-H23 lung, in the experiment with NCI/ADR-RES ovarian, in the experiment with MDA-MB-435, in the experiment with IGROV1 ovarian and in the experiment on MOLT-4 leukemia was more than 100 µM in each case. Further, the TGI in the experiment on HOP-62 NSCLC is more than 100 µM.

As for `CCOC(=O)CN1CCNCCN(CC(=O)OCC)CCNCC1`, the TGI with CAKI-1 renal, with MCF7 breast, with NCI-H460 lung, in the experiment with K-562 leukemia, in the experiment with NCI/ADR-RES ovarian and with MDA-MB-435 was more than 100 µM in each case. Also, the TGI in the experiment on IGROV1 ovarian, with MOLT-4 leukemia and with HOP-62 NSCLC was more than 100 µM in each case.

Take `CSc1ccc2c(cc1=O)[C@@H](NC(C)=O)CCc1cc(O)c(O)c(O)c1-2`: the TGI in the experiment on CAKI-1 renal was more than 100 µM; in the experiment with MCF7 breast, 19.8 µM; in the experiment on NCI-H23 lung, 44.9 µM; with NCI-H460 lung, 36.2 µM; in the experiment with NCI/ADR-RES ovarian it was 58.3 µM; in the experiment with MDA-MB-435 it was 29.9 µM. The TGI in the experiment on IGROV1 ovarian was 32.4 µM; in the experiment on MOLT-4 leukemia, more than 100 µM; in the experiment with HOP-62 NSCLC, 32.3 µM.

`CCN(CC)CCn1c(C(C)(C)C)nc2ccccc21`: the TGI in the experiment with CAKI-1 renal, in the experiment on MCF7 breast, with NCI-H23 lung, in the experiment with NCI-H460 lung, with K-562 leukemia and in the experiment with NCI/ADR-RES ovarian was more than 100 µM throughout. Besides, the TGI in the experiment on IGROV1 ovarian, in the experiment with MOLT-4 leukemia and in the experiment with HOP-62 NSCLC was more than 100 µM in each case.

For `COC(=O)c1ccccc1C1CN=NC12Cc1ccc3ccccc3c1C2=O` (configuration not stated), the TGI with CAKI-1 renal, in the experiment with MCF7 breast, in the experiment with NCI-H460 lung, in the experiment with K-562 leukemia, in the experiment on NCI/ADR-RES ovarian and with MDA-MB-435 was more than 100 µM in each case. The TGI in the experiment with IGROV1 ovarian and in the experiment with MOLT-4 leukemia was more than 100 µM in each case.

As to `COc1ccc2c(c1)C(N)CC2=O` (configuration not stated), the TGI in the experiment on CAKI-1 renal, in the experiment on MCF7 breast, in the experiment on NCI-H23 lung, in the experiment with K-562 leukemia, in the experiment with NCI/ADR-RES ovarian and with MDA-MB-435 was more than 100 µM in each case. Moreover, the TGI in the experiment with IGROV1 ovarian, in the experiment on MOLT-4 leukemia and with HOP-62 NSCLC was more than 100 µM each time.

As for `Cc1[nH]c2ncn3nc(C(Cl)(Cl)Cl)nc3c2c1Cc1ccccc1`, the TGI with CAKI-1 renal, in the experiment with MCF7 breast, in the experiment on NCI-H23 lung, in the experiment on NCI-H460 lung, in the experiment on NCI/ADR-RES ovarian and in the experiment on MDA-MB-435 was more than 100 µM each time. The TGI in the experiment on IGROV1 ovarian, with MOLT-4 leukemia and in the experiment on HOP-62 NSCLC was more than 100 µM throughout.

As to `CCOC(=O)c1c(C)n(Cc2ccccc2)c(=O)c2ccccc2c(=O)c2c(=O)ccc(=O)c1=2`, the TGI in the experiment with CAKI-1 renal, in the experiment with NCI-H23 lung, with NCI-H460 lung, in the experiment with K-562 leukemia, in the experiment on NCI/ADR-RES ovarian and with MDA-MB-435 was more than 100 µM each time. The figures for the TGI in the experiment with IGROV1 ovarian, in the experiment with MOLT-4 leukemia and in the experiment on HOP-62 NSCLC were 67.9 µM, more than 100 µM and more than 100 µM, respectively.
